Results reported in paper PMC5218480 (PLoS ONE, 2017).

Test system: MV-4-11 cells
Assay: Gene expression microarray analysis (Affymetrix PrimeView) and GSEA
Format: cell-based, human
Design: RFU PODN (11730768_x_at) / Fold change /veh PODN (11730768_x_at) / RFU LINC00158 (11744669_a_at) / Fold change /veh LINC00158 (11744669_a_at) / RFU DUSP10 (11751237_a_at) / Fold change /veh DUSP10 (11751237_a_at) / RFU ID3 (11757404_x_at) / Fold change /veh ID3 (11757404_x_at) / RFU PLEKHG5 (11737974_s_at) / Fold change /veh PLEKHG5 (11737974_s_at) / RFU LRRC4B (11730491_at) / Fold change /veh LRRC4B (11730491_at) / RFU GIMAP4 (11747438_a_at) / Fold change /veh GIMAP4 (11747438_a_at) / RFU KRT8 (11758183_x_at) / Fold change /veh KRT8 (11758183_x_at) / RFU CNN1 (11734310_a_at) / Fold change /veh CNN1 (11734310_a_at) / RFU VPS37D (11726825_at) / Fold change /veh VPS37D (11726825_at) / RFU C10orf10 (11716522_x_at) / Fold change /veh C10orf10 (11716522_x_at) / RFU KIR2DL2 /// KIR2DL4 /// KIR2DL5A /// KIR2DL5B /// KIR2DS1 /// KIR2DS2 /// KIR2DS3 /// KIR2DS4 /// KIR3DL3 /// KIR3DL3 /// KIR3DS1 (11738374_at) / Fold change /veh KIR2DL2 /// KIR2DL4 /// KIR2DL5A /// KIR2DL5B /// KIR2DS1 /// KIR2DS2 /// KIR2DS3 /// KIR2DS4 /// KIR3DL3 /// KIR3DL3 /// KIR3DS1 (11738374_at) / RFU C1QL1 (11718748_at) / Fold change /veh C1QL1 (11718748_at) / RFU TMPRSS4 (11747572_a_at) / Fold change /veh TMPRSS4 (11747572_a_at) / RFU HAMP (11756126_x_at) / Fold change /veh HAMP (11756126_x_at) / RFU RNFT2 (11725882_a_at) / Fold change /veh RNFT2 (11725882_a_at) / RFU NR4A2 (11747474_a_at) / Fold change /veh NR4A2 (11747474_a_at) / RFU ABCC12 (11746883_a_at) / Fold change /veh ABCC12 (11746883_a_at) / RFU TMEM136 (11760407_x_at) / Fold change /veh TMEM136 (11760407_x_at) / RFU CLDN22 /// WWC2 (11732394_at) / Fold change /veh CLDN22 /// WWC2 (11732394_at) / RFU HLA-DPB1 (11760878_x_at) / Fold change /veh HLA-DPB1 (11760878_x_at) / RFU SPINT1 (11716480_a_at) / Fold change /veh SPINT1 (11716480_a_at) / RFU GAP43 (11754022_s_at) / Fold change /veh GAP43 (11754022_s_at) / RFU A4GNT (11735810_at) / Fold change /veh A4GNT (11735810_at) / RFU PRB3 (11715151_x_at) / Fold change /veh PRB3 (11715151_x_at) / RFU TUBB4B (11761932_at) / Fold change /veh TUBB4B (11761932_at) / RFU CAPN14 (11732068_a_at) / Fold change /veh CAPN14 (11732068_a_at) / RFU TMCC2 (11721928_a_at) / Fold change /veh TMCC2 (11721928_a_at) / RFU IRGQ (11745062_a_at) / Fold change /veh IRGQ (11745062_a_at) / RFU FAM174B (11720279_a_at) / Fold change /veh FAM174B (11720279_a_at) / RFU TMPRSS4 (11748680_a_at) / Fold change /veh TMPRSS4 (11748680_a_at) / RFU FAM212B (11763350_a_at) / Fold change /veh FAM212B (11763350_a_at) / RFU PLEKHG5 (11743358_a_at) / Fold change /veh PLEKHG5 (11743358_a_at) / RFU ZSCAN30 (11745921_a_at) / Fold change /veh ZSCAN30 (11745921_a_at) / RFU CMKLR1 (11741424_a_at) / Fold change /veh CMKLR1 (11741424_a_at) / RFU LOC101060620 /// MAPK8IP1 (11723275_at) / Fold change /veh LOC101060620 /// MAPK8IP1 (11723275_at) / RFU SPTSSB (11747773_x_at) / Fold change /veh SPTSSB (11747773_x_at) / RFU PRSS12 (11739890_at) / Fold change /veh PRSS12 (11739890_at) / RFU BIN1 (11741810_x_at) / Fold change /veh BIN1 (11741810_x_at) / RFU WNT11 (11732464_a_at) / Fold change /veh WNT11 (11732464_a_at) / RFU C10orf10 (11716521_a_at) / Fold change /veh C10orf10 (11716521_a_at) / RFU C5orf56 (11738089_at) / Fold change /veh C5orf56 (11738089_at) / RFU CYB561 (11721691_x_at) / Fold change /veh CYB561 (11721691_x_at) / RFU ANKRD19P (11752326_a_at) / Fold change /veh ANKRD19P (11752326_a_at) / RFU OR2T12 /// OR2T33 /// OR2T8 (11738714_s_at) / Fold change /veh OR2T12 /// OR2T33 /// OR2T8 (11738714_s_at) / RFU VCAN (11748164_a_at) / Fold change /veh VCAN (11748164_a_at) / RFU JSRP1 (11732532_at) / Fold change /veh JSRP1 (11732532_at) / RFU KRTAP10-11 (11738290_x_at) / Fold change /veh KRTAP10-11 (11738290_x_at) / RFU MYO3A (11730013_a_at) / Fold change /veh MYO3A (11730013_a_at) / RFU EBF3 (11725865_a_at) / Fold change /veh EBF3 (11725865_a_at) / RFU CAMK2N1 (11719241_x_at) / Fold change /veh CAMK2N1 (11719241_x_at) / RFU C5orf56 (11738088_a_at) / Fold change /veh C5orf56 (11738088_a_at) / RFU OLFML3 (11715873_a_at) / Fold change /veh OLFML3 (11715873_a_at) / RFU LOC100653217 /// NTM (11731650_a_at) / Fold change /veh LOC100653217 /// NTM (11731650_a_at) / RFU MAPK11 (11762145_a_at) / Fold change /veh MAPK11 (11762145_a_at) / RFU FIZ1 (11724087_x_at) / Fold change /veh FIZ1 (11724087_x_at) / RFU OASL (11726364_x_at) / Fold change /veh OASL (11726364_x_at) / RFU SOX15 (11748057_x_at) / Fold change /veh SOX15 (11748057_x_at) / RFU CD79A (11719716_a_at) / Fold change /veh CD79A (11719716_a_at) / RFU HIST1H1D (11736915_at) / Fold change /veh HIST1H1D (11736915_at) / RFU CASKIN2 (11723855_a_at) / Fold change /veh CASKIN2 (11723855_a_at) / RFU LOC730098 (11760151_x_at) / Fold change /veh LOC730098 (11760151_x_at) / RFU OR4N2 (11742367_at) / Fold change /veh OR4N2 (11742367_at) / RFU PRRT2 (11749266_a_at) / Fold change /veh PRRT2 (11749266_a_at) / RFU SNX32 (11753110_a_at) / Fold change /veh SNX32 (11753110_a_at) / RFU CDHR5 (11726645_a_at) / Fold change /veh CDHR5 (11726645_a_at) / RFU RCAN1 (11760418_a_at) / Fold change /veh RCAN1 (11760418_a_at) / RFU FAM167A (11723789_a_at) / Fold change /veh FAM167A (11723789_a_at) / RFU FAM26E (11764081_at) / Fold change /veh FAM26E (11764081_at) / RFU ISYNA1 (11749810_s_at) / Fold change /veh ISYNA1 (11749810_s_at) / RFU ACY1 (11761880_at) / Fold change /veh ACY1 (11761880_at) / RFU 11764098_at / Fold change /veh 11764098_at / RFU SAMD14 (11745864_x_at) / Fold change /veh SAMD14 (11745864_x_at) / RFU NPB (11741838_a_at) / Fold change /veh NPB (11741838_a_at) / RFU TMPRSS6 (11731388_a_at) / Fold change /veh TMPRSS6 (11731388_a_at) / RFU KRTAP10-2 (11738614_at) / Fold change /veh KRTAP10-2 (11738614_at) / RFU ARHGAP8 /// PRR5-ARHGAP8 (11727945_x_at) / Fold change /veh ARHGAP8 /// PRR5-ARHGAP8 (11727945_x_at) / RFU KRTAP5-7 /// NADSYN1 (11734609_at) / Fold change /veh KRTAP5-7 /// NADSYN1 (11734609_at) / RFU RASL12 (11751679_a_at) / Fold change /veh RASL12 (11751679_a_at) / RFU CDKN2B (11736163_a_at) / Fold change /veh CDKN2B (11736163_a_at) / RFU PRF1 (11729649_at) / Fold change /veh PRF1 (11729649_at) / RFU, ZNF638 /// ZNF638-IT1 / Fold change vs veh, ZNF638 /// ZNF638-IT1 / RFU, PANK3 / Fold change vs veh, PANK3 / RFU, SH3YL1 / Fold change vs veh, SH3YL1 / RFU, ZEB2 / Fold change vs veh, ZEB2 / RFU, NRIP1 / Fold change vs veh, NRIP1 / RFU, PTTG1IP / Fold change vs veh, PTTG1IP / RFU, CAPN2 / Fold change vs veh, CAPN2 / RFU, MED14 / Fold change vs veh, MED14 / RFU, SNORA58 / Fold change vs veh, SNORA58 / RFU, C1orf63 / Fold change vs veh, C1orf63 / RFU, LRRFIP1 / Fold change vs veh, LRRFIP1 / RFU, NDUFAF7 / Fold change vs veh, NDUFAF7 / RFU, SLC12A2 / Fold change vs veh, SLC12A2 / RFU, IBTK / Fold change vs veh, IBTK / RFU, ESF1 / Fold change vs veh, ESF1 / Fold change vs veh, TMEM50B / RFU, TAOK1 / Fold change vs veh, TAOK1 / RFU, ACBD3 / Fold change vs veh, ACBD3 / RFU, TMA16 / Fold change vs veh, TMA16 / RFU, RWDD3 / Fold change vs veh, RWDD3 / RFU, BCAT1 / Fold change vs veh, BCAT1 / RFU, EDEM3 / Fold change vs veh, EDEM3 / RFU, TMEM33 / Fold change vs veh, TMEM33 / RFU, WDR75 / Fold change vs veh, WDR75 / RFU, AHCTF1 / Fold change vs veh, AHCTF1 / RFU, TFRC / Fold change vs veh, TFRC / RFU, ZDHHC17 / Fold change vs veh, ZDHHC17 / RFU, NOM1 / Fold change vs veh, NOM1 / RFU, ARL8B / Fold change vs veh, ARL8B / RFU, ZBTB11 / Fold change vs veh, ZBTB11 / RFU, TAMM41 / Fold change vs veh, TAMM41 / RFU, KIAA1704 /// LOC100996395 / Fold change vs veh, KIAA1704 /// LOC100996395 / RFU, ING1 / Fold change vs veh, ING1 / RFU, TRMT61B / Fold change vs veh, TRMT61B / RFU, FUBP3 / Fold change vs veh, FUBP3 / RFU, TP53 / Fold change vs veh, TP53 / RFU, TNKS2 / Fold change vs veh, TNKS2 / RFU, ZFP14 / Fold change vs veh, ZFP14 / RFU, ACTR2 / Fold change vs veh, ACTR2 / RFU, PPP3R1 / Fold change vs veh, PPP3R1 / RFU, PIK3R1 / Fold change vs veh, PIK3R1 / RFU, HNRNPA1 / Fold change vs veh, HNRNPA1 / RFU, RNF170 / Fold change vs veh, RNF170 / RFU, ZNF28 / Fold change vs veh, ZNF28 / RFU, RNGTT / Fold change vs veh, RNGTT / RFU, OGT / Fold change vs veh, OGT / RFU, BRD1 / Fold change vs veh, BRD1 / RFU, MARS / Fold change vs veh, MARS / RFU, ZNF655 / Fold change vs veh, ZNF655 / RFU, FAHD1 / Fold change vs veh, FAHD1 / RFU, BDP1 / Fold change vs veh, BDP1 / RFU, LRRCC1 / Fold change vs veh, LRRCC1 / RFU, ARID1A / Fold change vs veh, ARID1A / RFU, ZNF146 / Fold change vs veh, ZNF146 / RFU, ZNF330 / Fold change vs veh, ZNF330 / RFU, GPN3 / Fold change vs veh, GPN3 / RFU, C9orf123 / Fold change vs veh, C9orf123 / RFU, N4BP2L2 / Fold change vs veh, N4BP2L2 / RFU, ARFIP1 / Fold change vs veh, ARFIP1 / RFU, FAM179B / Fold change vs veh, FAM179B / RFU, BCL10 / Fold change vs veh, BCL10 / RFU, UHRF1BP1L / Fold change vs veh, UHRF1BP1L / RFU, BET1 / Fold change vs veh, BET1 / RFU, CNOT2 / Fold change vs veh, CNOT2 / RFU, ZNF268 / Fold change vs veh, ZNF268 / Fold change vs veh, ZNF507 / RFU, DGCR2 / Fold change vs veh, DGCR2 / RFU, WDSUB1 / Fold change vs veh, WDSUB1 / Fold change vs veh, HSP90B1 /// MIR3652 / RFU, ADSS / Fold change vs veh, ADSS / RFU, GK / Fold change vs veh, GK / RFU, ZNF148 / Fold change vs veh, ZNF148 / RFU, TAF9 / Fold change vs veh, TAF9 / RFU, SLC1A5 / Fold change vs veh, SLC1A5 / RFU, SLMO2 / Fold change vs veh, SLMO2 / RFU, ABCC4 / Fold change vs veh, ABCC4 / RFU, LOC101060439 /// RAP1B / Fold change vs veh, LOC101060439 /// RAP1B / RFU, RFX7 / Fold change vs veh, RFX7 / RFU, GTPBP10 / Fold change vs veh, GTPBP10 / RFU, CNEP1R1 / Fold change vs veh, CNEP1R1 / RFU, BIVM-ERCC5 /// ERCC5 / Fold change vs veh, BIVM-ERCC5 /// ERCC5 / RFU, ILF3 / Fold change vs veh, ILF3 / RFU 11762660_at / Fold change /veh 11762660_at / RFU VCAN (11757783_s_at) / Fold change /veh VCAN (11757783_s_at) / RFU DDX43 (11728927_at) / Fold change /veh DDX43 (11728927_at) / RFU KRT8 (11758188_x_at) / Fold change /veh KRT8 (11758188_x_at) / RFU NKD1 (11759106_at) / Fold change /veh NKD1 (11759106_at) / RFU SRD5A1 (11742802_a_at) / Fold change /veh SRD5A1 (11742802_a_at) / RFU TPSAB1 /// TPSB2 (11721975_s_at) / Fold change /veh TPSAB1 /// TPSB2 (11721975_s_at) / RFU GSTM3 (11746129_a_at) / Fold change /veh GSTM3 (11746129_a_at) / RFU IL23R (11737362_x_at) / Fold change /veh IL23R (11737362_x_at) / RFU TMEM51 (11727254_a_at) / Fold change /veh TMEM51 (11727254_a_at) / RFU PIWIL2 (11732686_x_at) / Fold change /veh PIWIL2 (11732686_x_at) / RFU ORM1 (11744905_x_at) / Fold change /veh ORM1 (11744905_x_at) / RFU CCDC152 (11743942_at) / Fold change /veh CCDC152 (11743942_at) / RFU ECM1 (11717891_a_at) / Fold change /veh ECM1 (11717891_a_at) / RFU IL23R (11748794_a_at) / Fold change /veh IL23R (11748794_a_at) / RFU TNFAIP8L3 (11732012_x_at) / Fold change /veh TNFAIP8L3 (11732012_x_at) / RFU MBOAT4 (11741988_at) / Fold change /veh MBOAT4 (11741988_at) / RFU 11764193_at / Fold change /veh 11764193_at / RFU TMEM53 (11763286_at) / Fold change /veh TMEM53 (11763286_at) / RFU MAGEB2 (11727129_at) / Fold change /veh MAGEB2 (11727129_at) / RFU TMEM200A (11744735_a_at) / Fold change /veh TMEM200A (11744735_a_at) / RFU CCDC152 (11751479_a_at) / Fold change /veh CCDC152 (11751479_a_at) / RFU FAM211A (11726209_a_at) / Fold change /veh FAM211A (11726209_a_at) / RFU RGS16 (11746705_a_at) / Fold change /veh RGS16 (11746705_a_at) / RFU VCAN (11755009_s_at) / Fold change /veh VCAN (11755009_s_at) / RFU RHOB (11743442_s_at) / Fold change /veh RHOB (11743442_s_at) / RFU RGS16 (11720943_a_at) / Fold change /veh RGS16 (11720943_a_at) / RFU RGS16 (11720944_at) / Fold change /veh RGS16 (11720944_at) / RFU, VPS4B / Fold change vs veh, VPS4B / RFU, CREB1 / Fold change vs veh, CREB1 / RFU, DNAJC13 / Fold change vs veh, DNAJC13 / RFU, GNAQ / Fold change vs veh, GNAQ / RFU, CDK5R1 / Fold change vs veh, CDK5R1 / RFU, ZRANB3 / Fold change vs veh, ZRANB3 / RFU, CUL4A / Fold change vs veh, CUL4A / RFU, CCNY / Fold change vs veh, CCNY / RFU, UFL1 / Fold change vs veh, UFL1 / RFU, COG3 / Fold change vs veh, COG3 / RFU, DIAPH2 / Fold change vs veh, DIAPH2 / RFU, SKA2 / Fold change vs veh, SKA2 / RFU, AFF3 / Fold change vs veh, AFF3 / RFU, LMF1 / Fold change vs veh, LMF1 / RFU, IPO11 / Fold change vs veh, IPO11 / RFU, DFFB / Fold change vs veh, DFFB / RFU, FOXP1 / Fold change vs veh, FOXP1 / RFU, CARD8 / Fold change vs veh, CARD8 / RFU, STRN3 / Fold change vs veh, STRN3 / RFU, ADK / Fold change vs veh, ADK / RFU, RASSF2 / Fold change vs veh, RASSF2 / RFU, WIPF1 / Fold change vs veh, WIPF1 / RFU, LARP1B / Fold change vs veh, LARP1B / RFU, RASA1 / Fold change vs veh, RASA1 / RFU, RB1 / Fold change vs veh, RB1 / RFU, PPFIA1 / Fold change vs veh, PPFIA1 / RFU, MAT2A / Fold change vs veh, MAT2A / RFU, CCT5 / Fold change vs veh, CCT5 / RFU, WDR92 / Fold change vs veh, WDR92 / RFU, CUX1 / Fold change vs veh, CUX1 / RFU, TTC7A / Fold change vs veh, TTC7A / RFU, TMEM135 / Fold change vs veh, TMEM135 / RFU, DEPTOR / Fold change vs veh, DEPTOR / RFU, CPM / Fold change vs veh, CPM / RFU, DNAJB6 / Fold change vs veh, DNAJB6 / RFU, CACNA2D3 / Fold change vs veh, CACNA2D3 / RFU, DTX4 / Fold change vs veh, DTX4 / RFU, TFCP2 / Fold change vs veh, TFCP2 / RFU, GMCL1 /// GMCL1P1 / Fold change vs veh, GMCL1 /// GMCL1P1 / RFU, AEBP2 / Fold change vs veh, AEBP2 / RFU, SNHG1 /// SNORD22 /// SNORD25 /// SNORD26 /// SNORD27 /// SNORD28 /// SNORD29 /// SNORD31 / Fold change vs veh, SNHG1 /// SNORD22 /// SNORD25 /// SNORD26 /// SNORD27 /// SNORD28 /// SNORD29 /// SNORD31 / Fold change (Aza/veh), C12orf56 (ProbeSet 11735607_a_at) / Fold change (ACY-1035/veh), C12orf56 (ProbeSet 11735607_a_at) / Fold change (Aza/veh), FGFR1OP (ProbeSet 11751329_s_at) / Fold change (ACY-1035/veh), FGFR1OP (ProbeSet 11751329_s_at) / Fold change (Aza/veh), VPS36 (ProbeSet 11739960_a_at) / Fold change (ACY-1035/veh), VPS36 (ProbeSet 11739960_a_at) / RFU SYPL1 (11715823_x_at) / Fold change /veh SYPL1 (11715823_x_at) / RFU IGFBP7 (11715501_s_at) / Fold change /veh IGFBP7 (11715501_s_at) / RFU REEP3 (11722064_at) / Fold change /veh REEP3 (11722064_at) / RFU IGLL1 (11728026_x_at) / Fold change /veh IGLL1 (11728026_x_at): dose or concentration left out as unconfirmed
Settings: ProbeSet 11716999_a_at; LIST D

Nc1ncn([C@@H]2O[C@H](CO)[C@@H](O)[C@H]2O)c(=O)n1 [azacitidine]
Fold change vs veh, RASA1: 0.72
